Data: the supplement of paper PMC8882468

Tests used:
Assay in all cases: CTG-3D luminescence at 96 h relative to day-0 seeding control (ratio to day 0); higher = more growth / less cytotoxicity; PDxO 3D drug screen (set 2), 96 h, CTG-3D normalised to day-0 seeding control.
HCI-015 = system: HCI-015 (organoid from a triple-negative breast cancer xenograft)
HCI-025 = system: HCI-025 (organoid from a breast cancer xenograft)
HCI-008 = system: HCI-008 (organoid from a HER2-enriched breast cancer xenograft)
HCI-016 = system: HCI-016 (organoid from a triple-negative breast cancer xenograft)
HCI-010 = system: HCI-010 (organoid from a breast cancer xenograft)

CO[C@H]1C[C@@H]2CC[C@@H](C)[C@@](O)(O2)C(=O)C(=O)N2CCCC[C@H]2C(=O)O[C@H]([C@H](C)C[C@@H]2CC[C@@H](OCCO)[C@H](OC)C2)CC(=O)[C@H](C)/C=C(\C)[C@@H](O)[C@@H](OC)C(=O)[C@H](C)C[C@H](C)/C=C/C=C/C=C/1C [everolimus]
CTG-3D luminescence at 96 h
Details | 12.5 pM | 0.00025 µM | 0.005 µM | 0.1 µM | 1 µM | 10 µM | 100 µM | 625 fM
HCI-008, days in culture: 325 | 0.998 | 1.62 | 1.03 | 2.85 | 2.2 | 1.15 | -0.00335 | 1.28
HCI-008, days in culture: 340 | 1.1 | 1.26 | 1.65 | 0.457 | 1.04 | – | -0.000653 | 1.09
HCI-008, days in culture: 354 | 1.49 | 0.714 | 2.05 | 0.859 | 0.973 | 0.697 | -0.00248 | 0.841
HCI-008, days in culture: 382 | 1.54 | 1.42 | 1.04 | 1.1 | 0.451 | 0.406 | -0.000828 | 1.26
HCI-010, days in culture: 79 | 1.18 | 1.21 | 1.18 | 1.28 | 1.13 | 1.12 | -0.00276 | 1.31
HCI-010, days in culture: 86 | 1.76 | 1.9 | 1.53 | 1.19 | 0.809 | 0.648 | -0.000872 | 2.35
HCI-010, days in culture: 102 | 1.16 | 0.848 | 0.691 | 0.497 | 0.337 | 0.158 | -0.000165 | 1.13
HCI-010, days in culture: 164 | 1.53 | 1.42 | 1.25 | 0.906 | 0.778 | 0.581 | 0.000191 | 1.52
HCI-015, days in culture: 333 | 1.5 | 1.05 | 0.891 | 0.744 | 0.932 | 0.782 | 0.00101 | 1.51
HCI-015, days in culture: 355 | 2.02 | 1.85 | 1.47 | 1.79 | 0.526 | 0.358 | -0.00285 | 1.7
HCI-015, days in culture: 369 | 1.97 | 1.19 | 1.91 | 1.52 | 1.84 | 1.12 | -0.00186 | 1.61
HCI-016, days in culture: 305 | 1.91 | 2.37 | 1.91 | 2.63 | 1.49 | 1.46 | -0.0112 | 3.94
HCI-016, days in culture: 327 | 0.724 | 1 | 1.4 | 1.68 | 0.673 | 1.5 | -0.00208 | 0.809
HCI-016, days in culture: 341 | 1.86 | 1.39 | 1.69 | 1.34 | 1.18 | 1.47 | -0.00301 | 2.31
HCI-016, days in culture: 397 | 2.02 | 1.53 | 1.5 | 1.31 | 0.567 | 0.757 | -0.000194 | 2.23
HCI-025, days in culture: 175 | 1.08 | 0.994 | 0.949 | 1.13 | 1.44 | 1.35 | 0.00118 | 1.41
HCI-025, days in culture: 189 | 1.44 | 1.22 | 1.34 | 1.21 | 0.974 | 0.917 | 0.000135 | 2.02
HCI-025, days in culture: 212 | 1.18 | 2.27 | 2.08 | 0.487 | 0.322 | 0.167 | -0.000795 | 1.43
HCI-025, days in culture: 224 | 1.8 | 2.05 | 1.58 | 0.608 | 0.581 | 0.366 | -0.00196 | 1.74

CS(=O)(=O)CCNCc1ccc(-c2ccc3ncnc(Nc4ccc(OCc5cccc(F)c5)c(Cl)c4)c3c2)o1 [lapatinib]
CTG-3D luminescence at 96 h
Details | 12.5 pM | 0.00025 µM | 0.005 µM | 0.1 µM | 1 µM | 10 µM | 100 µM | 625 fM
HCI-008, days in culture: 325 | 1.68 | 1.81 | 1.73 | 3.2 | 2.32 | 0.898 | 0.0242 | 1.5
HCI-008, days in culture: 340 | 1.22 | 2.1 | 1.96 | 1.35 | 2.47 | – | 0.0374 | 1.39
HCI-008, days in culture: 354 | 1.62 | 1.04 | 2.27 | 1.42 | 1.52 | 0.935 | 0.00653 | 1.13
HCI-008, days in culture: 382 | 1.61 | 1.47 | 1.81 | 1.52 | 1.25 | 0.425 | 0.00105 | 1.22
HCI-010, days in culture: 79 | 1.89 | 1.81 | 2.03 | 2.16 | 2.02 | 0.69 | -0.00188 | 2.06
HCI-010, days in culture: 86 | 2.21 | 2.38 | 2.53 | 2.49 | 2.33 | 0.631 | 0.0027 | 2.48
HCI-010, days in culture: 102 | 1.1 | 1.16 | 1.11 | 1.32 | 1.48 | 0.154 | 8.25e-05 | 1.09
HCI-010, days in culture: 164 | 1.78 | 1.5 | 1.5 | 1.46 | 1.78 | 0.353 | 0.000987 | 1.63
HCI-015, days in culture: 333 | 1.35 | 1.46 | 1.34 | 1.08 | 0.661 | 0.251 | 0.00814 | 2.63
HCI-015, days in culture: 355 | 3.61 | 3.24 | 1.08 | 1.64 | 1.45 | 0.567 | 0.0071 | 2.45
HCI-015, days in culture: 369 | 2.34 | 1.5 | 2.2 | 1.6 | 2.32 | 0.511 | 0.0242 | 1.79
HCI-016, days in culture: 305 | 2.19 | 2.44 | 2.88 | 3.72 | 1.92 | 0.286 | -0.00685 | 4
HCI-016, days in culture: 327 | 1.07 | 0.931 | 1.47 | 1.74 | 1.12 | 0.284 | 0.000753 | 2.05
HCI-016, days in culture: 341 | 2.29 | 1.62 | 2.18 | 1.86 | 1.6 | 0.474 | -0.00181 | 2.42
HCI-016, days in culture: 397 | 1.92 | 2.19 | 2.02 | 2.38 | 1.32 | 0.254 | -0.000202 | 2.47
HCI-025, days in culture: 175 | 1.92 | 2.05 | 1.45 | 2.22 | 2.73 | 1.66 | 0.00817 | 1.88
HCI-025, days in culture: 189 | 1.99 | 2.19 | 1.58 | 3.08 | 1.26 | 0.872 | 0.00432 | 2.46
HCI-025, days in culture: 212 | 1.59 | 3.22 | 4.13 | 3.86 | 1.17 | 0.527 | 0.00417 | 1.69
HCI-025, days in culture: 224 | 2.14 | 1.93 | 1.8 | 1.82 | 1.84 | 0.896 | 0.000609 | 1.83
